# In patent US20090175845A1, “METHODS FOR IDENTIFYING COMPOUNDS THAT MODULATE PHB DOMAIN PROTEIN ACTIVITY AND COMPOSITIONS THEREOF” (THE TRUSTEES OF COLUMBIA UNIVERSITY IN THE CITY OF NEW YORK, priority 2005, published 2009):
# Experiments:
# [1] = test system: mec-2 null worms expressing the mec-2(C140/174A) gene; assay: C. elegans gentle touch sensitivity on plates with defined sterols; format: in vivo; details: sterol substituted for cholesterol in the growth medium, FIG. 8C
# Method: C. elegans experiments. C. elegans strains were cultured at 20° C., assayed for touch sensitivity, and prepared for immunofluorescence as described previously [Zhang et al. (2004) Curr. Biol. 14:1888-96; Goodman et al. (2002) Nature 415:1039-42]. Briefly, C. elegans strains were cultured at 20° C. as described in the art. Strains were grown for at least three consecutive generations without starvation before carrying out the experiments described herein. Gentle touch and harsh touch sensitivity were assayed in blind tests by stimulating with an eyebrow hair or prodding with a platinum wire, respectively, as described in the art. To quantify the response, the number of responses in about 30 animals to 10 touches delivered alternately near the head and tail was recorded. Whole-mount immunofluorescence microscopy was carried out using methods known in the art.
# Media for growth on limiting or no cholesterol or on other sterols were prepared from chloroform-extracted reagents as described by Matyash et al. [(2004) PLoS Biol. 2: e280].
# First, a version of MEC-2 with reduced cholesterol binding was generating by mutating the predicted palmitoylation sites of the protein. Briefly, HEK293T cells were transfected with wild type MEC-2 or MEC-2(C140/174A) and labeled with [^3H]palmitic acid or [^3H]photoaffinity cholesterol. Equal expression of proteins in the lysates was confirmed on Western blots. […] Because touch sensitivity of wild-type animals was not affected by this limited cholesterol depletion, the effects observed with the palmitoylation mutant cannot be attributed to indirect effects on neuronal growth or development. Test compounds that target palmitoylation sites in PHB domain proteins can be used to modulate activity of such proteins, for example, by reducing their activity.
# [2] = molecular target: T1, NusA fused to the cholesterol binding domain of Podocin (amino acids 119-284) (Mus musculus, UniProt Q91X05); assay: In vitro cholesterol interaction, scintillation counting of bead-bound recombinant protein
# T1 construct: made in house; host or cells: E. coli
# T1 sequence (Q91X05 119-284): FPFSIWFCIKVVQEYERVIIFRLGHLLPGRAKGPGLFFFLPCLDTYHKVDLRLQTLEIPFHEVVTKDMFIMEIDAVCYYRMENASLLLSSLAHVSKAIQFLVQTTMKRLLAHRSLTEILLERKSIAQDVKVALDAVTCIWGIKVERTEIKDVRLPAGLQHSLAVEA
# Method: In vitro cholesterol interaction. Podocin truncations were cloned into various bacterial expression vectors and tested for the expression of soluble recombinant fusion proteins. […] Purity of the preparation was confirmed on Coomassie gels. For in vitro cholesterol interaction assays 2-20 μg of affinity purified Podocin protein was bound to 30 μl of Ni+ beads and incubated with 0.1 μCi [^3H]cholesterol (Amersham) complexed with low amounts of cyclodextrine. After binding for 10 minutes at 37° C. beads were washed extensively and counted in a scintillation counter. To confirm equal loading of the beads aliquots of the bound protein were run on Coomassie gels. Competition experiments were performed with 1 μg of affinity purified Podocin protein fused to NusA or NusA alone as a control. Samples were incubated with radioactively labeled cholesterol in the absence (no cold competition) or presence (cold competition) of varying amounts of […]. Cold competition was approximately 100-fold excess of cold cholesterol. The sample was washed extensively and subjected to scintillation counting.
# The importance of different regions of Podocin for cholesterol binding was tested by fusing them to the extracellular and transmembrane domains of Nephrin. […]
smiles,measurement,setting,value
CC(C)CCC[C@@H](C)[C@H]1CC[C@H]2[C@@H]3CC=C4C[C@@H](O)CC[C@]4(C)[C@H]3CC[C@]12C [cholesterol],rescue of reduced touch sensitivity,[1],dependent on the cholesterol concentration
same,direct binding of [3H]cholesterol in vitro,"[2]; Podocin fragments produced in E. coli, 10 minutes at 37° C.",sufficient for cholesterol binding
same,cold competition of [3H]cholesterol binding,[2]; approximately 100-fold excess of unlabeled cholesterol,competed
